Reference: patent publication US20130129832A1, “COGNITIVE IMPAIRMENT AMELIORANT” (TOHOKU UNIVERSITY, priority 2008, published 2013)

How the values were obtained:
[1] = system: ERK phosphorylation in PC12D cells; assay: ERK phosphorylation in PC12D cells by western blotting (p-ERK relative to total ERK); format: cell-based; conditions: 15 minutes treatment, 30 μM nobiletin alone, FIG. 2
Protocol: Therefore, the effects of royal jelly and the effects of the combined used of royal jelly and nobiletin on ERK activity in PC12D cells, which are considered to be model cells of nerve cells, were examined by western blotting using as an indicator thereof the effects of water-soluble components of “Royal Jelly FD Powder” on ERK phosphorylation.
PC12D cells (Aichi Prefectural County Research Institute) were sub-cultured using Dulbecco's Modified Eagle Medium (DMEM) comprising heat inactivated (56° C., 30 minutes) 5% horse serum (HS: Gibco), 10% fetal calf serum (FCS: CELLect), penicillin (50 units/mL) and streptomycin ([…]). […]
PC12D cells were inoculated into a 35 mm dish at 1×10^6 cells/dish, and after culturing for 24 hours in a CO2 incubator, the cells were treated with drug. […] Moreover, after subjecting to ultrasonic treatment for 5 minutes in ice water, the lysate was centrifuged for 20 minutes at 14,000 rpm followed by recovery of the supernatant and quantification of the amount of protein. […] Bands were detected using the ECL method. […]
PC12D cells were inoculated into a 3.5 cm dish at 1×10^6 cells/dish and cultured overnight followed by treating for 15 minutes with low-serum medium comprising various drugs, and lysing the cells with cell lysis solution to obtain a cell extract. The expression levels of p-ERK and total ERK in the cell extract were then analyzed. […]

[2] = system: CRE-dependent transcription in cultured rat hippocampal neuronal cells; assay: CRE-dependent transcription reporter gene (luciferase) assay in cultured rat hippocampal neuronal cells; format: cell-based; conditions: 8 hours treatment with different concentrations, FIGS. 5 and 6
Protocol: (§1) FIG. 5 indicates concentration-dependent effects of nobiletin on CRE-dependent transcription in cultured rat hippocampal neuronal cells. Cells were inoculated at a density of 8×10^4 cells/48 well plate followed by holding the plate for 10 to 14 days. […] Following transfection, the cells were treated for 8 hours with different concentrations of […]. Data is shown as the mean±S.E.M. (n=6). Asterisks (*) indicate a level of significance of p<0.05 relative to a control, while double asterisks (**) indicate a level of significance of p<0.001 relative to a control.
as §1, with “FIG. 6 indicates concentration-dependent” for “FIG. 5 indicates concentration-dependent”, “effects of 4-demethylated nobiletin on” for “effects of nobiletin on”
A pregnant SD rat (E18) was sacrificed by cervical dislocation under ether anesthesia. […]
Results obtained from the reporter gene assay were evaluated using one-way ANOVA (Tukey). […]

| SMILES | effect on ERK phosphorylation [1] | effect on CRE-dependent transcription [2] |
| --- | --- | --- |
| COc1ccc(-c2cc(=O)c3c(OC)c(OC)c(OC)c(OC)c3o2)cc1OC [nobiletin, 5,6,7,8,3′,4′-hexamethoxyflavone] | only demonstrated weak promoting action of ERK phosphorylation when used alone | concentration-dependently promote CRE-dependent transcription |
| COc1cc(-c2cc(=O)c3c(OC)c(OC)c(OC)c(OC)c3o2)ccc1O [4-demethylated nobiletin, 2-(4-hydroxy-3-methoxyphenyl)-5,6,7,8-tetramethoxychromen-4-one] |  | concentration-dependently promote CRE-dependent transcription in the same manner as nobiletin |
